Reference: PubChem BioAssay AID1963834 (Molecular Pharmacology Branch, DTP, NCI, 2024)

Tested on: 873145-292-R-J1-PDC complex spheroid viability
Test: Anticancer human tumor 873145-292-R-J1-PDC patient-derived renal clear cell carcinoma cell line growth inhibition [POLQ]
Settings: for IC50: curve of first compound; for viability, T/C: stronger effect = lower value
Procedure, shortened: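 Three-cell-type spheroids modelling solid tumor plus stroma served as the readout system; POL inhibitors were tested individually and in combination, concentration ranges set by clinical Cmax where known.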

[1] = second compound 0.0316 µM, first compound 0.0316 µM
[2] = second compound 0.0316 µM, first compound 0.1 µM
[3] = second compound 0.0316 µM, first compound 0.316 µM
[4] = second compound 0.0316 µM, first compound 1 µM
[5] = second compound 0.0316 µM, first compound 3.16 µM
[6] = second compound 0.0316 µM, first compound 10 µM
[7] = second compound 0.1 µM, first compound 0.0316 µM
[8] = second compound 0.1 µM, first compound 0.1 µM
[9] = second compound 0.1 µM, first compound 0.316 µM
[10] = second compound 0.1 µM, first compound 1 µM
[11] = second compound 0.1 µM, first compound 3.16 µM
[12] = second compound 0.1 µM, first compound 10 µM
[13] = second compound 0.316 µM, first compound 0.0316 µM
[14] = second compound 0.316 µM, first compound 0.1 µM
[15] = second compound 0.316 µM, first compound 0.316 µM
[16] = second compound 0.316 µM, first compound 1 µM
[17] = second compound 0.316 µM, first compound 3.16 µM
[18] = second compound 0.316 µM, first compound 10 µM
[19] = second compound 1 µM, first compound 0.0316 µM
[20] = second compound 1 µM, first compound 0.1 µM
[21] = second compound 1 µM, first compound 0.316 µM
[22] = second compound 1 µM, first compound 1 µM
[23] = second compound 1 µM, first compound 3.16 µM
[24] = second compound 1 µM, first compound 10 µM
[25] = second compound 3.16 µM, first compound 0.0316 µM
[26] = second compound 3.16 µM, first compound 0.1 µM
[27] = second compound 3.16 µM, first compound 0.316 µM
[28] = second compound 3.16 µM, first compound 1 µM
[29] = second compound 3.16 µM, first compound 3.16 µM
[30] = second compound 3.16 µM, first compound 10 µM
[31] = second compound 10 µM, first compound 0.0316 µM
[32] = second compound 10 µM, first compound 0.1 µM
[33] = second compound 10 µM, first compound 0.316 µM
[34] = second compound 10 µM, first compound 1 µM
[35] = second compound 10 µM, first compound 3.16 µM
[36] = second compound 10 µM, first compound 10 µM
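Also: spheroids exposed to compounds for 7 days before viability readout.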
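For viability, T/C in this document: luminescence signal used as surrogate for viable cell content; 100% = DMSO vehicle control viability.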

CCc1cc2c(N3CCc4c(cc(Cn5ccnc5)cc4-c4cn(C)nc4C(F)(F)F)C3=O)ccnc2c(OC)n1 + Cc1cccc(N(C)C(=O)C2C(O)CCN2c2nc(C)cc(C(F)(F)F)c2C#N)c1
IC50 (second compound 0.0316 µM): > 10 µM | IC50 (second compound 0.1 µM): > 10 µM | IC50 (second compound 0.316 µM): > 10 µM | IC50 (second compound 1 µM): > 10 µM | IC50 (second compound 3.16 µM): > 10 µM | IC50 (second compound 10 µM): > 10 µM | viability, T/C [1]: 92.1% | viability, T/C [2]: 114% | viability, T/C [3]: 100% | viability, T/C [4]: 94.6% | viability, T/C [5]: 88% | viability, T/C [6]: 83.2% | viability, T/C [7]: 99.6% | viability, T/C [8]: 118% | viability, T/C [9]: 88.9% | viability, T/C [10]: 95% | viability, T/C [11]: 91.6% | viability, T/C [12]: 78.4% | viability, T/C [13]: 105% | viability, T/C [14]: 101% | viability, T/C [15]: 82.2% | viability, T/C [16]: 94.6% | viability, T/C [17]: 94.6% | viability, T/C [18]: 83.7% | viability, T/C [19]: 90.5% | viability, T/C [20]: 87.3% | viability, T/C [21]: 91.7% | viability, T/C [22]: 93.4% | viability, T/C [23]: 89.7% | viability, T/C [24]: 78% | viability, T/C [25]: 88.2% | viability, T/C [26]: 104% | viability, T/C [27]: 85% | viability, T/C [28]: 91.3% | viability, T/C [29]: 80.1% | viability, T/C [30]: 90.1% | viability, T/C [31]: 90.1% | viability, T/C [32]: 97.3% | viability, T/C [33]: 85.3% | viability, T/C [34]: 84.5% | viability, T/C [35]: 81.2% | viability, T/C [36]: 90.3%

COc1cc2cc(C(=O)CCC(=O)O)sc2cc1OC + Cc1cccc(N(C)C(=O)C2C(O)CCN2c2nc(C)cc(C(F)(F)F)c2C#N)c1
IC50 (second compound 0.0316 µM): > 10 µM | IC50 (second compound 0.1 µM): > 10 µM | IC50 (second compound 0.316 µM): > 10 µM | IC50 (second compound 1 µM): > 10 µM | IC50 (second compound 3.16 µM): > 10 µM | IC50 (second compound 10 µM): > 10 µM | viability, T/C [1]: 103% | viability, T/C [2]: 106% | viability, T/C [3]: 111% | viability, T/C [4]: 105% | viability, T/C [5]: 101% | viability, T/C [6]: 104% | viability, T/C [7]: 97.9% | viability, T/C [8]: 115% | viability, T/C [9]: 96.9% | viability, T/C [10]: 92.1% | viability, T/C [11]: 98.8% | viability, T/C [12]: 107% | viability, T/C [13]: 98.3% | viability, T/C [14]: 110% | viability, T/C [15]: 95.1% | viability, T/C [16]: 96.1% | viability, T/C [17]: 93.5% | viability, T/C [18]: 97.6% | viability, T/C [19]: 101% | viability, T/C [20]: 98.7% | viability, T/C [21]: 94% | viability, T/C [22]: 100% | viability, T/C [23]: 95.6% | viability, T/C [24]: 103% | viability, T/C [25]: 89% | viability, T/C [26]: 117% | viability, T/C [27]: 102% | viability, T/C [28]: 99.4% | viability, T/C [29]: 98.4% | viability, T/C [30]: 101% | viability, T/C [31]: 98.2% | viability, T/C [32]: 95.9% | viability, T/C [33]: 102% | viability, T/C [34]: 97.7% | viability, T/C [35]: 104% | viability, T/C [36]: 103%

O=C(Nc1ccc(O)c(NS(=O)(=O)c2ccc(F)cc2)c1)c1ccc(-c2ccccc2)cc1 + Cc1cccc(N(C)C(=O)C2C(O)CCN2c2nc(C)cc(C(F)(F)F)c2C#N)c1
IC50 (second compound 0.0316 µM): > 10 µM | IC50 (second compound 0.1 µM): > 10 µM | IC50 (second compound 0.316 µM): > 10 µM | IC50 (second compound 1 µM): > 10 µM | IC50 (second compound 3.16 µM): > 10 µM | IC50 (second compound 10 µM): > 10 µM | viability, T/C [1]: 110% | viability, T/C [2]: 98.5% | viability, T/C [3]: 105% | viability, T/C [4]: 91.6% | viability, T/C [5]: 95% | viability, T/C [6]: 110% | viability, T/C [7]: 107% | viability, T/C [8]: 112% | viability, T/C [9]: 91.7% | viability, T/C [10]: 96% | viability, T/C [11]: 105% | viability, T/C [12]: 88.6% | viability, T/C [13]: 106% | viability, T/C [14]: 103% | viability, T/C [15]: 91.3% | viability, T/C [16]: 92.8% | viability, T/C [17]: 112% | viability, T/C [18]: 102% | viability, T/C [19]: 106% | viability, T/C [20]: 109% | viability, T/C [21]: 111% | viability, T/C [22]: 93.2% | viability, T/C [23]: 103% | viability, T/C [24]: 104% | viability, T/C [25]: 94.9% | viability, T/C [26]: 105% | viability, T/C [27]: 104% | viability, T/C [28]: 99.3% | viability, T/C [29]: 99.3% | viability, T/C [30]: 95.5% | viability, T/C [31]: 96.9% | viability, T/C [32]: 107% | viability, T/C [33]: 100% | viability, T/C [34]: 93.9% | viability, T/C [35]: 111% | viability, T/C [36]: 102%

COc1cccc2c1C(=O)c1c(O)c3c(c(O)c1C2=O)CC(O)(C(=O)CO)CC3OC1CC(N)C(O)C(C)O1 (stereo not drawn) + Nc1ccc(C#CCN(C(=O)Cc2ncc(C(F)(F)F)cc2C(F)(F)F)c2ccc(F)cc2)nn1
IC50 (second compound 0.0316 µM): 1.6 µM | IC50 (second compound 0.1 µM): 1.64 µM | IC50 (second compound 0.316 µM): 1.62 µM | IC50 (second compound 1 µM): 1.66 µM | IC50 (second compound 3.16 µM): 1.25 µM | IC50 (second compound 10 µM): 0.877 µM | viability, T/C [1]: 100% | viability, T/C [2]: 86.6% | viability, T/C [3]: 95.9% | viability, T/C [4]: 81.7% | viability, T/C [5]: 3.57% | viability, T/C [6]: 1.97% | viability, T/C [7]: 113% | viability, T/C [8]: 93.3% | viability, T/C [9]: 85.1% | viability, T/C [10]: 84.7% | viability, T/C [11]: 3.75% | viability, T/C [12]: 2.69% | viability, T/C [13]: 98.9% | viability, T/C [14]: 91.9% | viability, T/C [15]: 84.3% | viability, T/C [16]: 83% | viability, T/C [17]: 4.08% | viability, T/C [18]: 2.88% | viability, T/C [19]: 99.1% | viability, T/C [20]: 85.7% | viability, T/C [21]: 84.5% | viability, T/C [22]: 86.2% | viability, T/C [23]: 3.81% | viability, T/C [24]: 3.33% | viability, T/C [25]: 92.4% | viability, T/C [26]: 93.9% | viability, T/C [27]: 99% | viability, T/C [28]: 61.4% | viability, T/C [29]: 1.38% | viability, T/C [30]: 2.89% | viability, T/C [31]: 106% | viability, T/C [32]: 97.5% | viability, T/C [33]: 111% | viability, T/C [34]: 42.9% | viability, T/C [35]: 1.14% | viability, T/C [36]: 2.84%
